# Data reported in US20140303123A1, “SYNTHESIZING FUNCTIONALIZED DENDRIMERS WITHIN BIOLOGICAL SETTINGS” (priority 2011, published 2014).
# Experiments:
# folate receptor = conditions: relative to folic acid; cited from earlier work
# [1] = system: CD11b+ macrophages (peritoneal macrophages, lymph nodes); assay: In vivo trafficking of FA-targeted dendrimer nanoparticles in a murine model of inflammation (thioglycollate IP); conditions: thioglycollate-stimulated mice, 35 mg/kg IP on day 3, cells isolated day 4 (FIG. 6); for uptake in peritoneal macrophages (PEM): 35 mg/kg
# Experimental: Mice (n=2) were stimulated with thioglycollate IP. 3 days following thioglycollate, mice were administered 200 μl (35 mg/kg) folate functionalized dendrimer alkyne scaffolds. One day later (day 4), peritoneal macrophages (PEM), spleen, cervical lymph nodes, and mesenteric lymph nodes were isolated and processed into single-cell suspensions. Suspensions were stained with a CD11b monoclonal PE antibody and then fixed and permeabilized. Cell suspensions were then reacted with AlexaFluor 647-azide to detect dendrimer conjugates and analyzed by flow cytometry.
# On day 1, mice (n=2) were treated IP with thioglycollate to stimulate folate receptor positive macrophage infiltration into the peritoneal cavity (see, e.g., Xia, W. et al. Blood 113, 438-446 (2005); herein incorporated by reference in its entirety). On day 3, mice were administered folate targeted dendrimers IP (35 mg/kg). On day 4, peritoneal macrophages (PEM) as well as the spleen, submandibular lymph nodes, and mesenteric lymph nodes were isolated and processed as using standard techniques. Single cell suspensions were made and analyzed by flow cytometry for co-expression of the macrophage marker CD11b and the FA-dendrimer scaffolds. […] Compared to the cervical lymph nodes (secondary lymph organs not draining the peritoneal cavity), there was a greater proportion of double-positive CD11b and FR cells in the mesenteric lymph nodes consistent with the trafficking of these activated macrophages.
# [2] = system: FRα over-expressing KB cells; assay: Uptake of dendrimer conjugates in KB cells, in situ CuAAC detection with fluorescent azide, flow cytometry; format: cell-based; conditions: increasing concentrations, 1 hour at 37° C., Alexa647-azide detection (FIG. 2A)
# Experimental: KB cells were cultured in RPMI 1640 medium without folic acid for at least 4 days before experiments, resulting in the folic acid receptor overexpressing KB (FAR-KB) cell line. […] For the flow cytometry measurements, cells were seeded on a 12-well plate for tissue culture at a concentration of 23105 cells/well and grown in folic acid deficient RPMI 1640 media (Mediatech, Herndon, Va.) at 37° C., 5% CO2 for 24 hr. The cells were then incubated with the series of the prepared nanodevices at either 37° C. for 1 hr. After removal of supernatants, cells were trypsinized and collected into FACS tubes, followed by centrifugation at 1500 rpm for 5 min to obtain cell pellets. […] Fluorescence signal intensities from the samples were measured using a Coulter EPICS/XL MCL Beckman-Coulter flow cytometer, and data were analyzed using FloJo 8.2 software (TreeStar).
# After 4% paraformaldehyde fixation and permeabilization with 10% saponin in PBS and BSA, cells were rinsed and then stained by incubating cells for 30 min with 100 mM Tris (pH 8.5), 1 mM CuSO4, 1-100 μM fluorescent azide (in DMSO), and 100 mM ascorbic acid (added last to the mix in 0.5 M stock in water). […] After staining, cells were washed with 10% saponin solution and assessed by flow cytometry.
# [3] = system: bone marrow derived macrophages (BMDM); conditions: BMDMs differentiated with IL-4 and IL-10, 30 nM, 6 hours at 37° C. (FIG. 4)
# Experimental: Bone marrow derived macrophages (BMDM) were obtained as previously described. Briefly, bone marrow precursors from female C57BL/6 mice were isolated and propagated for 7 days in RPMI 1640 supplemented with penicillin (100 units/ml), streptomycin (100 mg/ml), and 10% heat inactivated low endotoxin fetal bovine serum with L-conditioned media. Following propagation, BMDMs were polarized with murine recombinant proteins M-CSF (10 ng/ml), IL4 (50 ng/ml), IL10 (10 ng/ml), or GM-CSF (10 ng/ml) for 72 hours (Peprotech). For the flow cytometry measurements, cells were seeded on a 12-well plate for tissue culture at a concentration of 23105 cells/well and grown in folic acid deficient RPMI 1640 media (Mediatech, Herndon, Va.) at 37° C., 5% CO2 for 24 hr. […] Fluorescence signal intensities from the samples were measured using a Coulter EPICS/XL MCL Beckman-Coulter flow cytometer, and data were analyzed using FloJo 8.2 software (TreeStar).
# After 4% paraformaldehyde fixation and permeabilization with 10% saponin in PBS and BSA, cells were rinsed and then stained by incubating cells for 30 min with 100 mM Tris (pH 8.5), 1 mM CuSO4, 1-100 μM fluorescent azide (in DMSO), and 100 mM ascorbic acid (added last to the mix in 0.5 M stock in water). […] After staining, cells were washed with 10% saponin solution and assessed by flow cytometry. […]
molecule,measurement,setting,value
CN(Cc1cnc2nc(N)nc(N)c2n1)c1ccc(C(=O)N[C@@H](CCC(=O)O)C(=O)O)cc1 [methotrexate],affinity for the folate receptor in comparison to folic acid (lower),folate receptor,100 fold
G5-NHAc80-Alkyne8-FA4-Gly [FA-dendrimer alkyne conjugates],uptake in CD11b+ cells in the mesenteric lymph nodes,[1],significant uptake
same,uptake in peritoneal macrophages (PEM),[1]; listed as FA-dendrimer nanoparticles,much higher uptake
same,uptake in peritoneal macrophages (PEM),[1]; listed as folate nanodevices,significant uptake
same,cellular uptake,[2],dose-dependent cellular uptake
G5-NHAc80-Alkyne12-Gly [non-targeted dendrimer conjugates],cellular uptake,[2],did not demonstrate any significant uptake
G5-NHAc80-Alkyne12-Mannose15-Gly [mannose-targeted dendrimers],binding and uptake compared to non-targeted controls,[3],increased binding and uptake
